In data set [1] the test system is ovalbumin-induced asthma. Nature of the data set: Ovalbumin-induced asthma, prophylactic treatment model (lung ferritin). It is filed as in vivo, BALB/c mice. The note with it: asthmatic mice, 1 and 0.3 mg/kg i.p., then 0.3 mg/kg i.n. The method, then:
Ferritin concentration was quantified using an indirect ‘sandwich’ ELISA assay in accordance with a procedure developed previously in our laboratory. Briefly, ELISA 96-well micro plates were pre-coated with goat anti-human L-ferritin antibody. Rabbit anti-human H-ferritin was used as the secondary antibody. Plates were treated with goat anti-rabbit IgG conjugated with β-galactosidase. Chlorophenol Red-β-D-Galactopyranoside was then added and the plates analyzed using a microplate reader with a test (570 nm) and reference (630 nm) filters.
• Twelve-week-old Balb/c mice were administered 10 μg (100 μl) ovalbumin (OVA) dissolved with 3 mg Al(OH)3 in 0.9% saline intraperitoneally (i.p.) on days 0, 7 and 14, and 10 μg (50 μl) OVA intranasally (i.n.) on days 20, 23, 25, 27, 29, 31, 34, 36, 37, 41, 43 and 45. […]
(§1) To estimate the anti-asthmatic effect of the complexes the following parameters were measured: the concentration of ferritin in the lungs, the presence of inflammatory cells infiltration into the lungs, and the amounts of macrophages, eosinophils, lymphocytes and neutrophils in bronchoalveolar lavages (BALs).

Data set [2] has as its system ovalbumin-induced asthma. Nature of the data set: Ovalbumin-induced asthma, treatment of chronic asthma model (BAL cells, lung histology). It is filed as in vivo, BALB/c mice. Conditions: Mean ± SE. The protocol:
• Twelve-week-old Balb/c mice were administered 10 μg (100 μl) ovalbumin (OVA) dissolved with 3 mg Al(OH)3 in 0.9% saline intraperitoneally (i.p.) on days 0, 7 and 14, and 10 μg (50 μl) OVA intranasally (i.n.) on days 20, 23, 25, 27, 29, 31, 34, 36, 37, 41, 43 and 45. For intranasal administration, mice were anesthetized with inhaled N-flurane and instilled with OVA i.n. with a micropipette. • Three-week-old BALB/c mice were sensitized (×3) with intra-peritoneal (i/p) injection (100 μl OVA solution, containing 0.3 mg OVA and 6.7 mg Al(OH)3, in 1 ml PBS) on days 0, 7 and 14. On days 14, 15, 17, 21 and 23 the mice were further sensitized with intranasal sprinklings (50 μl, each) of OVA in PBS solution containing 2 mg/ml OVA, as following: mice were anesthetized with inhaled N-flurane and instilled with OVA intra-nasally using a micropipette. Twenty-four hours after the last administration of OVA, the mice were sacrificed. Methacholine Challenge and Collection of Histologic Sections and Biochemical Samples
Either Zn-DFO, Ga-DFO, Zn-DFO and Ga-DFO 1:1 combination (herein metal complexes) or saline were administered as follows: on days −5, −1, 7 and 14, 1 mg/kg body weight metal complexes or saline were administered intraperitoneally (i.p.). On days 0, 6, 8, 13 and 15, 0.3 mg/kg body weight metal complexes or saline were administered i.p. On days 20, 23, 25, 27, 29, 31, 34, 36, 37, 41, 43 and 45, 0.3 mg/kg body weight metal complexes or saline were administered intranasally (i.n.). Twenty-four hours after the last sensitization, mice were anesthetized with urethane and the lungs were lavaged 4 times with 0.5 ml sterile PBS. Animals in the “control” group (non-asthmatic—saline treated, but not sensitized) (n=6) received saline injections and instillations, using the same regime as the asthmatic and treated animals. Animals of the “asthmatic” group (sensitized and saline-treated, rather than complex-treated) (n=6) received saline instead of the respective complex, under the same regime.
For the treatment of chronic asthma model, a similar experimental protocol was followed, with the following modifications: 1 mg/kg body weight metal complexes or saline were administered i.p. on day 0 (instead of days −5 and −1) and a further 0.3 mg/kg complexes or saline were administered on day 1. In this model, the effects of the complexes were investigated further by histological examination of lung sections stained with either haematoxylin-eosine or PAS/AB (periodic acid-Schiff/alcan blue).
as §1

Data set [3] relates to high energy diet-induced Type II diabetes. Nature of the data set: Sand rat high energy diet Type II diabetes model, glucose tolerance test and cataract formation (Example 6). It is filed as in vivo, sand rat (Psammomis obesus). An excerpt: Sand rats (Psammomis Obesus) were used as a model for Type 2 diabetes. The sand rats transferred onto high energy diet develop a severe form of Type 2 diabetes, including high blood glucose level, increase in body weight, and cataract development (eye lens opacification).
The sand rats were divided into groups. The animals from the Group I received the standard diet, serving as a control, whereas animals from the other indicated groups received high energy diet, leading to diabetes development. The high-energy diet ed mice were either untreated, or treated with intra-peritoneal injections of 2.5 mg/kg body weight Ga-DFO, Zn-DFO, DFO alone, Zn, Ga or lipoic acid (LA), either twice or three times per week, as indicated, for the duration of the experiment. The blood glucose and body weight of the animals were monitored throughout the experiment.
Forty two sand rats were divided into seven groups, six animals in each. The animals from Group I received the standard diet and used as a control. The animals from the Groups II, III, IV, V, VI and VII received high energy diet, leading to diabetes development, while Groups III, IV and VII were treated with Zn-DFO, Ga-DFO and DFO alone, respectively. The Groups V and VI received Zn and Ga, in their chloride salt form, alone respectively. Administration of the different treatments was as described, and the experiment lasted for 53 days. Glucose tolerance test was performed at the end of experiment. The cataract formation was tested as well.

The test system is the same in data set [4]. Nature of the data set: Sand rat high energy diet Type II diabetes model, body weight, blood glucose, glucose tolerance, cataract (Example 7). It is filed as in vivo, sand rat (Psammomis obesus).
The conditions of data set [5]: complex of desferrioxamine with the named metal ion; cited from earlier work.

Turning to `CC(=O)N(O)CCCCCNC(=O)CCC(=O)N([O-])CCCCCNC(=O)CCC(=O)N([O-])CCCCCN.[Zn+2]` [Zn-DFO, Zinc-desferrioxamine], the lung ferritin level with ovalbumin-induced asthma [1] was found to be 0.6 ± 0.2 µg/mg. For the same molecule, in the data set with ovalbumin-induced asthma [2], the “Eosinophils in BAL fluid” value was 0.3 ± 0.05^# 10^4 cells/ml, the “Lymphocytes in BAL fluid” value is recorded as 0.2 ± 0.05^# 10^4 cells/ml, the “Macrophages in BAL fluid” value is listed as 3.0 ± 0.2^# 10^4 cells/ml and the “Neutrophils in BAL fluid” value was 0.2 ± 0.05^# 10^4 cells/ml. In the data set with ovalbumin-induced asthma [2], the “Total WBC in BAL fluid” value is on record as 4.0 ± 0.3^# 10^4 cells/ml. The “three hours response to an orally-administered glucose dose, value above the zero (standard diet Group I)” value in data set [3] (200 mg glucose per 100 g body weight, end of 53 day experiment, high energy diet) turned out to be 20 mg/dL. The Cataract formation in data set [3] (high energy diet (HE) sand rats, 53 days) stood at 22%. This molecule also returned a blood glucose value in data set [4] (day 28, high energy diet, 2.5 mg/kg i.p. three times a week) of 200 mg/dL. Besides, the body weight gain result in data set [4] (high energy diet, 2.5 mg/kg i.p. three times a week, 63 days) was “gained weight moderately”. The molecule also came in with a blood glucose value in data set [4] (toward the end of experiment, high energy diet, 2.5 mg/kg i.p. three times a week) of 110 mg/dL. Moreover, in data set [4] (treated group (Group III)), the “animals that did not develop cataract” value is listed as “four”, the “animals with grade 1-2 cataract in both eyes” value is “Two” and the “animals with severe (grade 3) cataract” value is “one”. For the same molecule, the “glucose tolerance test, integration of total glucose levels” value in data set [4] (versus Group I (standard diet)) is recorded as “insignificantly higher value than Group I”. The “relative stability constants for the complexes of desferrioxamine” value in data set [5] is recorded as 10^11.

The values above are taken from US9770430B2, “Desferrioxamine-metal complexes for the treatment of immune-related disorders” (priority 2009, dated 2017).
